{"source": "paper PMC9097638", "about": "“Mechanism underlying the carotenoid accumulation in shaded tea leaves” (Food Chemistry: X, 2022)", "key": {"CsLCYB": {"target": "T1, CsLCYB (Camellia sinensis, UniProt A0A0B4SX47)", "T1 construct": "gene lcyb; full-length cDNA subcloned into y2 plasmid; expressed in E. coli DH5alpha carrying pAC-LYC; not purified", "T1 sequence (A0A0B4SX47 1-504)": "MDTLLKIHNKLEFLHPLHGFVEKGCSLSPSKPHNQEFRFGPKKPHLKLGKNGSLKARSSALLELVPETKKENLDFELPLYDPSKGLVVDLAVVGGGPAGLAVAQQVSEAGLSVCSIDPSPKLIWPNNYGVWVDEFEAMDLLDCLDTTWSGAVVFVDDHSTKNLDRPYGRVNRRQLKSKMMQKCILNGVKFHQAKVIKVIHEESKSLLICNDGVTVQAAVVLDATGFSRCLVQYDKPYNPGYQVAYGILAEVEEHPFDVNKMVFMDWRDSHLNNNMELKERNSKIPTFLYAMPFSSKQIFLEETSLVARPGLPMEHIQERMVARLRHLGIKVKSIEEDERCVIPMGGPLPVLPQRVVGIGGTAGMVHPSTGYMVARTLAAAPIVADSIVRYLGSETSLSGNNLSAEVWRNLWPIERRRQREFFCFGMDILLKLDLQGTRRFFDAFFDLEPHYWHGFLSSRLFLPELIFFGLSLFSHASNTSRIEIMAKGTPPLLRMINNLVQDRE", "assay": "E. coli pAC-LYC complementation, HPLC of pigments", "assay_type": "cell-based", "details": "lycopene made in the cells; product beta-carotene; 30 °C, 48 h, darkness"}, "CsLCYE": {"target": "T2, CsLCYE (Camellia sinensis, UniProt A0A7J7G232)", "T2 construct": "gene HYC85_025912; full-length cDNA subcloned into y2 plasmid; expressed in E. coli DH5alpha carrying pAC-LYC; not purified", "T2 sequence (A0A7J7G232 1-531 limits assumed)": "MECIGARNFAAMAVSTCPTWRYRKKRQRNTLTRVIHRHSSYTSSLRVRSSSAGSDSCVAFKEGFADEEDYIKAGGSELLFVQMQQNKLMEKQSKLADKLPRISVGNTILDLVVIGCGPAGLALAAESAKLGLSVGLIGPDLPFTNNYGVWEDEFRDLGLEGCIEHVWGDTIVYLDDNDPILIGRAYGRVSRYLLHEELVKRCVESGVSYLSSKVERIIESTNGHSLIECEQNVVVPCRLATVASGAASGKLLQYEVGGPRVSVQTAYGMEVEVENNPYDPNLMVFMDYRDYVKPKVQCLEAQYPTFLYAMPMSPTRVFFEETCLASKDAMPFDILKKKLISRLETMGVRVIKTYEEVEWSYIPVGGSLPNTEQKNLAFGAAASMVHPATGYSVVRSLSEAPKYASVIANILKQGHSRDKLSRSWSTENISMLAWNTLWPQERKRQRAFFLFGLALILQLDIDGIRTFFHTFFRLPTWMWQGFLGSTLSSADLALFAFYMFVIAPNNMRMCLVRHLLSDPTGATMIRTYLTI", "assay": "E. coli pAC-LYC complementation, HPLC of pigments", "assay_type": "cell-based", "details": "lycopene made in the cells; product delta-carotene; 30 °C, 48 h, darkness"}}, "data": [{"smiles": "CC(C)=CCC/C(C)=C/C=C/C(C)=C/C=C/C(C)=C/C=C/C=C(C)/C=C/C=C(C)/C=C/C=C(\\C)CCC=C(C)C", "note": "[lycopene]", "values": [{"measurement": "E. coli pAC-LYC complementation, HPLC of pigments", "setting": "CsLCYB", "result": "CsLCYB was able to convert the lycopene produced by the cells to β-carotene"}, {"measurement": "E. coli pAC-LYC complementation, HPLC of pigments", "setting": "CsLCYE", "result": "monocyclic δ-carotene and lycopene were detected, implying that CsLCYE is a functional lycopene ε-cyclase"}]}]}
